This note sets out measurements from patent publication US20120065063A1, “3-Aryl-4-(2,6-dimethylbenzylidene)isoxazol-5(4H)-ones as Fungicides” (Bayer CropScience AG, priority 2010, published 2012).

One data set relates to Alternaria solani. Put plainly: Alternaria test (tomato)/protective. Format: in vivo. The settings on record: protective, 500 ppm, evaluation 7 days after inoculation. As to the method: Alternaria Test (Tomato)/Protective [table] To produce an appropriate active compound formulation, 1 part by weight of active compound is mixed with the specified amounts of solvent and emulsifier, and the concentrate is diluted with water to the desired concentration. To test for protective activity, young tomato plants are sprayed with the preparation of active compound at the stated application rate. 1 day after the treatment, the plants are inoculated with a spore suspension of Alternaria solani and then remain at 100% relative humidity and 20° C. for 24 h. The plants then remain at 96% relative atmospheric humidity and a temperature of 20° C.

The test system of data set [1] is Blumeria graminis f.sp. tritici. Put plainly: Blumeria test (wheat)/protective. Format: in vivo. As to conditions: protective, 1000 ppm, evaluation 7 days after inoculation. As to the method:
Blumeria Test (Wheat)/Protective [table] To produce an appropriate active compound formulation, I part by weight of active compound is mixed with the specified amounts of solvent and emulsifier, and the concentrate is diluted with water to the desired concentration. To test for protective activity, young plants are sprayed with the preparation of active compound at the stated application rate. After the spray coating has dried on, the plants are dusted with spores of Blumeria graminis f.sp. tritici.

The test system of the next data set is Sphaerotheca fuliginea. Description: Sphaerotheca test (cucumber)/protective. The class given is in vivo. The settings on record: protective, 500 ppm, evaluation 7 days after inoculation. As to the method: Sphaerotheca Test (Cucumber)/Protective [table] To produce an appropriate active compound formulation, 1 part by weight of active compound is mixed with the specified amounts of solvent and emulsifier, and the concentrate is diluted with water to the desired concentration. To test for protective activity, young cucumber plants are sprayed with the preparation of active compound at the stated application rate. 1 day after the treatment, the plants are inoculated with a spore suspension of Sphaerotheca fuliginea. The plants are then placed in a greenhouse at 70% relative atmospheric humidity and a temperature of 23° C.

For a further data set, the system named is Plasmopara viticola. Description: Plasmopara test (grapevine)/protective. The class given is in vivo. As to conditions: protective, 100 ppm, evaluation 6 days after inoculation. Here is the method:
Plasmopara Test (Grapevine)/Protective [table] To produce an appropriate active compound formulation, I part by weight of active compound is mixed with the specified amounts of solvent and emulsifier, and the concentrate is diluted with water to the desired concentration. To test for protective efficacy, young plants are sprayed with the active compound formulation at the stated application rate. After the spray coating has dried on, the plants are inoculated with an aqueous spore suspension of Plasmopara viticola and then remain in an incubation cabin at about 20° C. and 100% relative atmospheric humidity for 1 day. The plants are then placed in a greenhouse at about 21° C. and about 90% atmospheric humidity for 4 days. The plants are then moistened and placed in an incubation cabin for 1 day.

In another data set the test system is Venturia inaequalis. Put plainly: Venturia test (apple)/protective. Format: in vivo. The settings on record: protective, 100 ppm, evaluation 10 days after inoculation. As to the method: Venturia Test (Apple)/Protective [table] To produce an appropriate active compound formulation, 1 part by weight of active compound is mixed with the specified amounts of solvent and emulsifier, and the concentrate is diluted with water to the desired concentration. To test for protective efficacy, young plants are sprayed with the active compound formulation at the stated application rate. After the spray coating has dried on, the plants are inoculated with an aqueous conidia suspension of the apple scab pathogen Venturia inaequalis and then remain in an incubation cabin at about 20° C. and 100% relative atmospheric humidity for 1 day. The plants are then placed in the greenhouse at about 21° C. and a relative atmospheric humidity of about 90%.

For a further data set, the system named is Leptosphaeria nodorum. Description: In vitro test for determining the ED50 value with Leptosphaeria nodorum. The settings on record: 50% inhibition of fungal growth, microtitre plates, 6 days, 20° C. The class given is cell-based. Here is the method: In Vitro Test for Determining the ED50 Value with Leptosphaeria nodorum The cavities of 96-well microtitre plates are filled with 1.5 μl of a solution of the test compounds in DMSO. 150 μl of a glucose/peptone medium comprising the spores of the test fungus in a suitable concentration are introduced into each cavity. The test compounds in the microtitre cavities are used in concentrations of 20, 6, 2 and 0.6 ppm. The absorbance is determined photometrically at 620 nm. The microtitre plates are left at 20° C. and 85% relative atmospheric humidity for 6 days. Once the incubation time has passed, the growth of the test organisms is determined photometrically at a wavelength of 620 nm. The difference in absorbances before and after the incubation corresponds to the growth of the test fungi. Based on the difference of the absorbances at the various test concentrations and the difference of the absorbances of the untreated control, a dose/activity curve is calculated. The concentration required to inhibit fungal growth by 50% is determined and reported as ED50 value (=Effective Dose which causes 50% inhibition of growth) in ppm (=mg/l).

The subject of a further data set is Spodoptera frugiperda. Description: Spodoptera frugiperda test (spray treatment). The settings on record: maize leaf discs, 500 g/ha. Format: in vivo. Here is the method:
Spodoptera frugiperda Test (Spray Treatment) [table] To produce a suitable preparation of active compound, 1 part by weight of active compound is mixed with the stated amounts of solvents and emulsifier, and the concentrate is diluted with emulsifier-containing water to the desired concentration. Discs of maize leaves (Zea mays) are sprayed with an active compound preparation of the desired concentration and, after drying, populated with caterpillars of the armyworm (Spodoptera frugiperda). After the desired period of time, the effect in % is determined. 100% means that all caterpillars have been killed; 0% means that none of the caterpillars have been killed.

Data set [2] is described as follows: log P by HPLC on reversed-phase columns (EEC directive 79/831 Annex V.A8). As to conditions: acidic range pH 2.7, 0.1% aqueous formic acid/acetonitrile. Format: physicochemical. As to the method: The log P values were measured according to EEC directive 79/831 Annex V.A8 by HPLC (High Performance Liquid Chromatography) on reversed-phase columns (C 18), using the method below:
The determination was carried out in the acidic range at pH 2.7 using the mobile phases 0.1% aqueous formic acid and acetonitrile; linear gradient from 10% acetonitrile to 95% acetonitrile.

The next data set has as its system Meloidogyne incognita. Description: Meloidogyne test (spray treatment). The class given is in vivo. The settings on record: lettuce, 20 ppm. Here is the method:
Meloidogyne Test (Spray Treatment) [table] To prepare a suitable active compound preparation, 1 part by weight of active compound is mixed with the stated amount of solvent and the concentrate is diluted with water to the desired concentration. Containers are filled with sand, solution of active compound, Meloidogyne incognita egg/larvae suspension and lettuce seeds. The lettuce seeds germinate and the plants develop. On the roots, galls are formed. After the desired period of time, the nematicidal action is determined in % by the gall formation. 100% means that no galls have been found; 0% means that the number of galls on the treated plants corresponds to that of the untreated control.

As usually defined, the log P is a log measure of how a compound divides between an organic and an aqueous phase. Low values mean a more hydrophilic compound, high ones a more lipophilic compound.

`O=C1ON=C(c2ccccc2)C1=Cc1ccccc1` [Compound A-1]: the efficacy with Alternaria solani is 0%; in [1], 29%; in the data set with Sphaerotheca fuliginea, 30%.
As for `O=C1ON=C(c2ccccc2)C1=Cc1ccc(Cl)cc1` [Compound A-2], the efficacy in the data set with Plasmopara viticola is listed as 38%; in the data set on Venturia inaequalis, 16%; with Alternaria solani, 0%; in data set [1], 29%; in the data set with Sphaerotheca fuliginea it was 20%.
Regarding `CC1=NOC(=O)C1=Cc1ccccc1` [Compound A-3], the efficacy in the data set on Plasmopara viticola is 55%; in the data set on Venturia inaequalis it was 48%; in the data set on Alternaria solani, 0%; in data set [1] it was 57%; in the data set with Sphaerotheca fuliginea, 30%.
As for `CC1=NOC(=O)C1=Cc1ccc(C)cc1` [Compound A-4], the efficacy in the data set with Plasmopara viticola is reported as 35%; in the data set on Venturia inaequalis it was 9%; with Alternaria solani, 0%; in data set [1], 43%; with Sphaerotheca fuliginea it was 30%. Moreover, the ED50 with Leptosphaeria nodorum stood at 14 ppm.
Regarding `COc1ccc(C=C2C(=O)ON=C2C)cc1` [Compound A-5], the efficacy with Plasmopara viticola turned out to be 40%; in the data set with Venturia inaequalis, 59%; with Alternaria solani, 0%; in data set [1], 29%; with Sphaerotheca fuliginea, 40%.
On to `O=C1ON=C(c2ccccc2)C1=Cc1ccccc1Cl` [Compound A-6], for which the efficacy in the data set on Plasmopara viticola is given as 38%; in the data set with Venturia inaequalis it was 14%; with Alternaria solani it was 0%; in data set [1], 29%; in the data set with Sphaerotheca fuliginea it was 50%.
`CC1=NOC(=O)C1=Cc1ccc(N(C)C)cc1` [Compound A-7]: the efficacy in the data set with Plasmopara viticola is 45%; in the data set on Venturia inaequalis it was 0%; in the data set with Alternaria solani it was 0%; in [1], 0%; in the data set on Sphaerotheca fuliginea, 10%.
Regarding `CC1=NOC(=O)/C1=C\c1ccco1` [Compound A-8], the efficacy in the data set with Plasmopara viticola was found to be 28%; with Venturia inaequalis, 6%; in the data set with Alternaria solani, 0%; in data set [1], 29%; with Sphaerotheca fuliginea, 0%.
Take `Cc1cc(C)c(C=C2C(=O)ON=C2c2c(F)cccc2F)c(C)c1` [Compound I-24]: in the data set with Spodoptera frugiperda, the “activity (caterpillars killed)” value is given as at least 80%. Also, in data set [2], the “log P” value is recorded as 4.09.
With `Cc1cc(C)c(C=C2C(=O)ON=C2c2ccc(Cl)cc2)c(C)c1` [Compound I-70], the “activity (nematicidal action by gall formation)” value in the data set on Meloidogyne incognita was at least 80%. In data set [2], the “log P” value was 4.50.
